The values that follow come from ChEMBL document CHEMBL5247598 (Eur J Med Chem, 2022).

For data set [1], the system named is NCI/ADR-RES. Nature of the data set: Antiproliferative activity against human multidrug resistant NCI-ADR-RES cells overexpressing P-gp assessed as reduction in cell viability incubated for 48 hrs by MTT assay. Format: functional, cell-based. (In general: Formazan colour is commonly taken as a measure of viable cells.)
Another data set concerns MCF7. Nature of the data set: Antiproliferative activity against human MCF7 cells assessed as reduction in cell viability incubated for 48 hrs by MTT assay. It counts as functional, cell-based. The settings on record: MCF7, 48 h, read-out: IC50.
Data set [2] in a line: Cytotoxicity against human HEK293T cells assessed as reduction in cell viability incubated for 48 hrs by MTT assay. It counts as toxicity, cell-based, HEK-293T.
Data set [3] deals with NCI/ADR-RES. Put plainly: Reversal fold, ratio of doxorubicin IC50 to doxorubicin IC50 in presence of 10 uM test compound for reversal of P-gp-mediated multidrug resistance in human NCI-ADR-RES cells incubated for 48 hrs by MTT assay. It counts as functional.

The structures appear in SMILES notation. Where only a bound is given, the exact number is not on record here.

As a reminder, the IC50 is the midpoint of a concentration-inhibition curve. In the case of `C=C1[C@H](OC(C)=O)[C@@H](OC(C)=O)[C@@H](O)C(C)(C)/C=C/[C@H](C)[C@H](OC(=O)c2ccccc2)[C@@]2(O)C[C@@](C)(O)[C@H](OC(C)=O)[C@@H]2[C@H]1OCC(C)C`, the IC50 with NCI/ADR-RES [1] and in the data set with MCF7 was greater than 100 µM in each case. Besides, the IC50 at 48 h in data set [2] is greater than 100 µM.
With `C=C1[C@H](OC(C)=O)[C@@H](OC(C)=O)[C@@H](OC(C)=O)C(C)(C)/C=C/[C@H](C)[C@H](OC(=O)c2ccccc2)[C@@]2(O)C[C@@](C)(OC(C)=O)[C@H](OC(C)=O)[C@@H]2[C@H]1OCC(C)C`, in the data set with NCI/ADR-RES [3], the “Ratio IC50” value came out at 12.16. In addition, the IC50 with NCI/ADR-RES [1] is greater than 100 µM; in the data set on MCF7, 74.3 µM. Also, in data set [2], the IC50 at 48 h was determined as 26.1 µM.
Taken in the same sequence, the figures for `C=C1[C@H](O)[C@@H](OC(=O)C(C)(C)C)[C@@H](O)C(C)(C)/C=C/[C@H](C)[C@H](OC(=O)c2ccccc2)[C@@]2(O)C[C@@](C)(O)[C@H](OC(C)=O)[C@@H]2[C@H]1OCC(C)C` were 0.91, greater than 100 µM, 69.9 µM and 31.7 µM.
Taken in the same sequence, the figures for `C=C1[C@H](OC(C)=O)[C@@H](OC(=O)C(C)(C)C)[C@@H](OC(C)=O)C(C)(C)/C=C/[C@H](C)[C@H]2O[C@]3(C)C[C@@]2(OC(=O)c2ccccc2)[C@H]([C@H]3OC(C)=O)[C@H]1OCC(C)C` were 21.3, greater than 100 µM, greater than 100 µM and greater than 100 µM.
`CC(=O)O[C@@H]1[C@@H]2[C@@H](OCC(C)C)C3(CO3)[C@H](O)[C@@H](O)[C@@H](O)C(C)(C)/C=C/[C@H](C)[C@H](OC(=O)c3ccccc3)[C@@]2(O)C[C@@]1(C)O` (stereo partly specified): the IC50 in the data set on NCI/ADR-RES [1] and with MCF7 was greater than 100 µM in each case. Moreover, the IC50 at 48 h in data set [2] is greater than 100 µM.
As to `C=C1[C@H](OC(C)=O)[C@@H](OC(C)=O)[C@@H](OC(C)=O)C(C)(C)/C=C/[C@H](C)[C@H](OC(=O)c2ccccc2)[C@@]2(O)C[C@@](C)(OC(=O)c3cccc(C)c3)[C@H](OC(C)=O)[C@@H]2[C@H]1OCC(C)C`, the “Ratio IC50” value with NCI/ADR-RES [3] is recorded as 38.74. Also, the half-maximal inhibitory concentration (IC50) in the data set with NCI/ADR-RES [1] and in the data set on MCF7 was greater than 100 µM throughout. For the same compound, the half-maximal inhibitory concentration (IC50) at 48 h in data set [2] was determined as 7.22 µM.
For the compound `C=C1[C@H](OCC(C)C)C2=C(C[C@@](C)(OC(C)=O)[C@@H]2OC(C)=O)[C@@H](OC(=O)c2ccccc2)[C@@H](C)/C=C/C(C)(C)[C@H](OC(C)=O)[C@H](OC(C)=O)[C@H]1OCC(C)C`, the “Ratio IC50” value in the data set with NCI/ADR-RES [3] came to 15.81. The concentration for half-maximal inhibition (IC50) in the data set on NCI/ADR-RES [1] and in the data set with MCF7 was greater than 100 µM in each case. Also, the IC50 at 48 h in data set [2] was greater than 100 µM.
`C=C1[C@H](OC(=O)c2cccc(C)c2)[C@@H](O)[C@@H](O)C(C)(C)/C=C/[C@H](C)[C@H](OC(=O)c2ccccc2)[C@@]2(O)C[C@@](C)(O)[C@H](OC(C)=O)[C@@H]2[C@H]1OCC(C)C`: in the data set on NCI/ADR-RES [3], the “Ratio IC50” value was determined as 8.85. Besides, the results for the IC50 in the data set with NCI/ADR-RES [1] and in the data set with MCF7 were 33.6 µM and 21.6 µM, respectively. Besides, in data set [2], the IC50 at 48 h was determined as 12 µM.
In the same order, the values of `C=C1[C@H](OCC(C)C)[C@@H](OC(C)=O)[C@@H](OC(C)=O)C(C)(C)/C=C/[C@H](C)[C@H](OC(=O)c2ccccc2)[C@@]2(O)C[C@@](C)(OC(C)=O)[C@H](OC(C)=O)[C@@H]2[C@H]1OCC(C)C` are 10.64, greater than 100 µM, greater than 100 µM and greater than 100 µM.
In the case of `C=C1[C@H](OC(C)=O)[C@@H](OC(C)=O)[C@@H](OC(C)=O)C(C)(C)/C=C/[C@H](C)[C@H]2O[C@]3(C)C[C@@]2(OC(=O)c2ccccc2)[C@H]([C@H]3OC(C)=O)[C@H]1OCC(C)C`, the “Ratio IC50” value in the data set on NCI/ADR-RES [3] is 34.3. Further, the IC50 with NCI/ADR-RES [1] and in the data set on MCF7 was greater than 100 µM each time. In addition, the IC50 at 48 h in data set [2] is 13.5 µM.
For the compound `C=C1[C@H](O)[C@@H](O)[C@@H](O)C(C)(C)/C=C/[C@H](C)[C@H](OC(=O)c2ccccc2)[C@@]2(O)C[C@@](C)(O)[C@H](OC(C)=O)[C@@H]2[C@H]1OCC(C)C`, the IC50 with NCI/ADR-RES [1] and in the data set with MCF7 was greater than 100 µM in each case. Besides, the IC50 at 48 h in data set [2] was greater than 100 µM.
